The values that follow are results of earlier work, collected in US20250275556A1, “N[…] METHOD FOR PRODUCING THE SAME” (Kalium Agri, Inc., priority 2024, published 2025).

For the data set the following is noted: magnesium supplement in cattle, in optimal situations.

For `[O]=[Mg]` [magnesium oxide], the digestible is 19%.
